From patent US6362369B1, “Phthalic acid diamide derivatives fluorine-containing aniline compounds as starting material, agricultural and horticultural insecticides, and a method for application of the insecticides” (Nihon Nohyaku Co., Ltd., priority 1997, dated 2002)

Test system: diamondback moth (Plutella xylostella)
Assay: Insecticidal effect on diamondback moth (Test Example 1)
Type: in vivo
Settings: diamondback moth; judged by the mortality criterion of Test Example 1
Protocol: Insecticidal effect on diamondback moth (Plutella xylostella) Adult diamondback moths were released and allowed to oviposit on a Chinese cabbage seedling. […] After air-drying, it was allowed to stand in a room thermostated at 25° C. Six days after the immersion, the hatched insects were counted. The mortality was calculated according to the following equation and the insecticidal effect was judged according to the criterion shown below. The test was carried out with triplicate groups of 10 insects. [table]

## CNC(=O)c1c(C(=O)Nc2cc(Cl)ccc2C)cccc1[N+](=O)[O-] [compound 3]
  Insecticidal effect, Test Example 1: C (89-80)

## CCNC(=O)c1ccccc1C(=O)Nc1ccc(C(F)(F)F)cc1 [compound 7]
  Insecticidal effect, Test Example 1: A (100)

## CCCNC(=O)c1ccccc1C(=O)Nc1ccc(C(F)(F)F)cc1 [compound 14]
  Insecticidal effect, Test Example 1: A (100)

## CCCNC(=O)c1cccc(Cl)c1C(=O)Nc1ccc(OC(F)F)cc1C [compound 16]
  Insecticidal effect, Test Example 1: A (100)

## CC(C)NC(=O)c1ccccc1C(=O)Nc1ccccc1 [compound 20]
  Insecticidal effect, Test Example 1: A (100)

## CC(C)NC(=O)c1ccccc1C(=O)Nc1cccc(SC(F)(F)F)c1 [compound 31]
  Insecticidal effect, Test Example 1: A (100)

## CC(C)NC(=O)c1ccccc1C(=O)Nc1ccc(SC(F)F)cc1 [compound 32]
  Insecticidal effect, Test Example 1: A (100)

## CC(C)NC(=O)c1ccccc1C(=O)Nc1ccc(SCC(F)(F)F)cc1 [compound 33]
  Insecticidal effect, Test Example 1: A (100)

## CC(C)NC(=O)c1ccccc1C(=O)Nc1ccc(SC(F)(F)C(F)(F)Br)cc1 [compound 37]
  Insecticidal effect, Test Example 1: A (100)

## Cc1cc(OC(F)(F)F)ccc1NC(=O)c1ccccc1C(=O)NC(C)C [compound 59]
  Insecticidal effect, Test Example 1: A (100)

## Cc1cc(SC(C)C)ccc1NC(=O)c1ccccc1C(=O)NC(C)C [compound 68]
  Insecticidal effect, Test Example 1: A (100)

## Cc1cc(Oc2c(F)c(F)c(F)c(F)c2F)ccc1NC(=O)c1ccccc1C(=O)NC(C)C [compound 73]
  Insecticidal effect, Test Example 1: A (100)

## Cc1cc(Oc2cccc(C(F)(F)F)c2)ccc1NC(=O)c1ccccc1C(=O)NC(C)C [compound 74]
  Insecticidal effect, Test Example 1: A (100)

## CC(C)NC(=O)c1ccccc1C(=O)Nc1cc(Cl)c(OC(F)F)c(Cl)c1 [compound 84]
  Insecticidal effect, Test Example 1: A (100)

## CC(C)NC(=O)c1c(Cl)cccc1C(=O)Nc1ccc(C(C)(C)C)cc1 [compound 88]
  Insecticidal effect, Test Example 1: A (100)

## CC(C)NC(=O)c1c(Cl)cccc1C(=O)Nc1ccc(OC(F)F)cc1 [compound 92]
  Insecticidal effect, Test Example 1: A (100)

## CC(C)NC(=O)c1c(Cl)cccc1C(=O)Nc1ccc(SCC(F)(F)F)cc1 [compound 101]
  Insecticidal effect, Test Example 1: A (100)

## CC(C)NC(=O)c1c(Cl)cccc1C(=O)Nc1cc(Cl)c(OC(F)F)c(Cl)c1 [compound 151]
  Insecticidal effect, Test Example 1: A (100)

## CC(C)NC(=O)c1cc(Cl)ccc1C(=O)Nc1ccccc1 [compound 168]
  Insecticidal effect, Test Example 1: A (100)

## CC(C)NC(=O)c1cc(Cl)ccc1C(=O)Nc1ccc(F)c(F)c1 [compound 174]
  Insecticidal effect, Test Example 1: A (100)

## CC(C)NC(=O)c1cc(Cl)ccc1C(=O)Nc1cccc(Cl)c1Cl [compound 175]
  Insecticidal effect, Test Example 1: A (100)

## Cc1ccc(F)cc1NC(=O)c1ccc(Cl)cc1C(=O)NC(C)C [compound 179]
  Insecticidal effect, Test Example 1: A (100)

## CC(C)NC(=O)c1ccc(Cl)cc1C(=O)Nc1ccc(OC(F)(F)F)cc1 [compound 185]
  Insecticidal effect, Test Example 1: A (100)

## CC(C)NC(=O)c1ccc(Cl)cc1C(=O)Nc1cccc(Cl)c1Cl [compound 186]
  Insecticidal effect, Test Example 1: D (79-50)

## Cc1c(Cl)cccc1NC(=O)c1cc(Cl)ccc1C(=O)NC(C)C [compound 189]
  Insecticidal effect, Test Example 1: A (100)

## Cc1cc(Cl)ccc1NC(=O)c1cc(Cl)ccc1C(=O)NC(C)C [compound 190]
  Insecticidal effect, Test Example 1: A (100)

## Cc1ccc(F)cc1NC(=O)c1cc(Cl)ccc1C(=O)NC(C)C [compound 192]
  Insecticidal effect, Test Example 1: A (100)

## CC(C)NC(=O)c1ccc(Cl)cc1C(=O)Nc1ccc(F)c(F)c1F [compound 194]
  Insecticidal effect, Test Example 1: A (100)
